Assay results from ChEMBL document CHEMBL5052840, “Pharmaceutical compounds and therapeutic methods” (2020).
pIC50: −log10 of the molar value. The source made the active and inactive calls. No cut-off for these calls is given here.

Key:
[1] = Plasma concentration in male C57BL/6 mouse at 2 mg/kg, iv administered as single dose measured at 0.08 hrs measured by LC/MS-MS analysis; format: ADME, organism-based
[2] = Plasma concentration in male C57BL/6 mouse at 2 mg/kg, iv administered as single dose measured at 0.35 hrs measured by LC/MS-MS analysis; format: ADME, organism-based
[3] = Plasma concentration in male C57BL/6 mouse at 2 mg/kg, iv administered as single dose measured at 1 hr measured by LC/MS-MS analysis; format: ADME, organism-based
[4] = Plasma concentration in male C57BL/6 mouse at 10 mg/kg, ip administered as single dose measured at 0.08 hrs measured by LC/MS-MS analysis; format: ADME, organism-based
[5] = Plasma concentration in male C57BL/6 mouse at 10 mg/kg, ip administered as single dose measured at 0.35 hrs measured by LC/MS-MS analysis; format: ADME, organism-based
[6] = Plasma concentration in male C57BL/6 mouse at 10 mg/kg, ip administered as single dose measured at 1 hr measured by LC/MS-MS analysis; format: ADME, organism-based
[7] = Plasma concentration in male C57BL/6 mouse at 10 mg/kg, ip administered as single dose measured at 3 hrs measured by LC/MS-MS analysis; format: ADME, organism-based
[8] = Plasma concentration in male C57BL/6 mouse at 10 mg/kg, ip administered as single dose measured at 6 hrs measured by LC/MS-MS analysis; format: ADME, organism-based
[9] = Plasma concentration in male C57BL/6 mouse at 10 mg/kg, po administered as single dose measured at 0.08 hrs measured by LC/MS-MS analysis; format: ADME, organism-based
[10] = Plasma concentration in male C57BL/6 mouse at 10 mg/kg, po administered as single dose measured at 0.35 hrs measured by LC/MS-MS analysis; format: ADME, organism-based
[11] = Plasma concentration in male C57BL/6 mouse at 10 mg/kg, po administered as single dose measured at 1 hr measured by LC/MS-MS analysis; format: ADME, organism-based
[12] = Plasma concentration in male C57BL/6 mouse at 10 mg/kg, po administered as single dose measured at 3 hrs measured by LC/MS-MS analysis; format: ADME, organism-based
[13] = Plasma concentration in male C57BL/6 mouse at 10 mg/kg, po administered as single dose measured at 6 hrs measured by LC/MS-MS analysis; format: ADME, organism-based
[14] = Brain concentration in male C57BL/6 mouse at 2 mg/kg, iv administered as single dose measured at 0.08 hrs measured by LC/MS-MS analysis; format: ADME, organism-based; settings: read-out: Drug uptake
[15] = Brain concentration in male C57BL/6 mouse at 2 mg/kg, iv administered as single dose measured at 0.35 hrs measured by LC/MS-MS analysis; format: ADME, organism-based; settings: read-out: Drug uptake
[16] = Brain concentration in male C57BL/6 mouse at 2 mg/kg, iv administered as single dose measured at 1 hr measured by LC/MS-MS analysis; format: ADME, organism-based; settings: read-out: Drug uptake
[17] = Brain concentration in male C57BL/6 mouse at 10 mg/kg, ip administered as single dose measured at 0.08 hrs measured by LC/MS-MS analysis; format: ADME, organism-based; settings: read-out: Drug uptake
[18] = Brain concentration in male C57BL/6 mouse at 10 mg/kg, ip administered as single dose measured at 0.35 hrs measured by LC/MS-MS analysis; format: ADME, organism-based; settings: read-out: Drug uptake
[19] = Brain concentration in male C57BL/6 mouse at 10 mg/kg, ip administered as single dose measured at 1 hr measured by LC/MS-MS analysis; format: ADME, organism-based; settings: read-out: Drug uptake
[20] = Brain concentration in male C57BL/6 mouse at 10 mg/kg, ip administered as single dose measured at 3 hrs measured by LC/MS-MS analysis; format: ADME, organism-based; settings: read-out: Drug uptake
[21] = Brain concentration in male C57BL/6 mouse at 10 mg/kg, ip administered as single dose measured at 6 hrs measured by LC/MS-MS analysis; format: ADME, organism-based; settings: read-out: Drug uptake
[22] = Brain concentration in male C57BL/6 mouse at 10 mg/kg, po administered as single dose measured at 0.08 hrs measured by LC/MS-MS analysis; format: ADME, organism-based; settings: read-out: Drug uptake
[23] = Brain concentration in male C57BL/6 mouse at 10 mg/kg, po administered as single dose measured at 0.35 hrs measured by LC/MS-MS analysis; format: ADME, organism-based; settings: read-out: Drug uptake
[24] = Brain concentration in male C57BL/6 mouse at 10 mg/kg, po administered as single dose measured at 1 hr measured by LC/MS-MS analysis; format: ADME, organism-based; settings: read-out: Drug uptake
[25] = Brain concentration in male C57BL/6 mouse at 10 mg/kg, po administered as single dose measured at 3 hrs measured by LC/MS-MS analysis; format: ADME, organism-based; settings: read-out: Drug uptake
[26] = Brain concentration in male C57BL/6 mouse at 10 mg/kg, po administered as single dose measured at 6 hrs measured by LC/MS-MS analysis; format: ADME, organism-based; settings: read-out: Drug uptake
[27] = Cmax in male C57BL/6 mouse plasma at 2 mg/kg, iv measured by LC/MS-MS analysis; format: ADME, organism-based; design: route intravenous, dose 2 mg/kg
[28] = Oral bioavailability in male C57BL/6 mouse plasma at 10 mg/kg measured by LC/MS-MS analysis; format: ADME, organism-based
[29] = Cmax in male C57BL/6 mouse brain at 2 mg/kg, iv measured by LC/MS-MS analysis; format: ADME, organism-based; design: route intravenous, dose 2 mg/kg
[30] = AUClast in male C57BL/6 mouse brain at 2 mg/kg, iv measured by LC/MS-MS analysis; format: ADME, organism-based; settings: in vivo
[31] = AUClast in male C57BL/6 mouse brain at 10 mg/kg, ip measured by LC/MS-MS analysis; format: ADME, organism-based; settings: in vivo
[32] = AUClast in male C57BL/6 mouse brain at 10 mg/kg, po measured by LC/MS-MS analysis; format: ADME, organism-based; settings: in vivo
[33] = AUC (infinity) in male C57BL/6 mouse brain at 10 mg/kg, po measured by LC/MS-MS analysis; format: ADME, organism-based; design: time infinity, route oral, dose 10 mg/kg; settings: in vivo
[34] = molecular target: T1, Polycomb complex protein BMI-1 (Homo sapiens) (UniProt P35226); assay: Inhibition of BMI1 in human Glioblastoma cell 3D spheres at 7 to 10 nM assessed as reduction in BMI1 protein levels measured by Western blotting method; format: cell-based; settings: Glioblastoma cell line, dose 7-10 nM
T1 sequence (whole entry): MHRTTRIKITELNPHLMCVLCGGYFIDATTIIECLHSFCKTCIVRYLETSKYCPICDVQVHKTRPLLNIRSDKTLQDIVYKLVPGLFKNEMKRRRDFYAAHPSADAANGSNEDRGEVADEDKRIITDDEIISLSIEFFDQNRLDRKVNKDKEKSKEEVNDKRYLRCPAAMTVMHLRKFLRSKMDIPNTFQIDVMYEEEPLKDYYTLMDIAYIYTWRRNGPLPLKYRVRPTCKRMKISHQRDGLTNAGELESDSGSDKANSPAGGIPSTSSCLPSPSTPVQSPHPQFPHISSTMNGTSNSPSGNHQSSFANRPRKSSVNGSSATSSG

[35] = molecular target: T1, Polycomb complex protein BMI-1 (Homo sapiens); assay: Inhibition of BMI1 in human Glioblastoma cell 3D spheres at 7 to 10 nM assessed as reduction in phospho-RB levels measured by Western blotting method; format: cell-based; settings: Glioblastoma cell line, dose 7-10 nM
[36] = molecular target: T1, Polycomb complex protein BMI-1 (Homo sapiens); assay: Inhibition of BMI1 in human Glioblastoma cell 3D spheres at 7 to 10 nM assessed as reduction in STAT1 levels measured by Western blotting method; format: cell-based; settings: Glioblastoma cell line, dose 7-10 nM
[37] = Antiproliferative activity against human Glioblastoma cell after 72 hrs by MTT assay; format: functional, cell-based; settings: Glioblastoma cell line
[38] = molecular target: T1, Polycomb complex protein BMI-1 (Homo sapiens); assay: Inhibition of BMI1 in human Glioblastoma cell 3D spheres at 7 to 10 nM assessed as reduction in BMI1 protein levels measured up to 120 hrs by Western blotting method; format: cell-based; settings: Glioblastoma cell line, dose 7-10 nM, time hrs <=120
[39] = molecular target: T1, Polycomb complex protein BMI-1 (Homo sapiens); assay: Inhibition of BMI1 in human Glioblastoma cell 3D spheres at 7 to 10 nM assessed as reduction in PD-L1 protein levels measured up to 120 hrs by Western blotting method; format: cell-based; settings: Glioblastoma cell line, dose 7-10 nM, time hrs <=120
[40] = molecular target: T1, Polycomb complex protein BMI-1 (Homo sapiens); assay: Inhibition of BMI1 in human Glioblastoma cell 3D spheres at 7 to 10 nM assessed as reduction in phospho-RB levels measured up to 120 hrs by Western blotting method; format: cell-based; settings: Glioblastoma cell line, dose 7-10 nM, time hrs <=120

Cl.[2H]C1([2H])Oc2ccc(Nc3nc(-c4c(C)nc5ccccn45)cs3)cc2O1
concentration at 0.08 h [1]: 256 ng/mL | concentration at 0.35 h [2]: 44.8 ng/mL | concentration at 1 h [3]: 9.57 ng/mL | concentration at 0.08 h [4]: 469 ng/mL | concentration at 0.35 h [5]: 458 ng/mL | concentration at 1 h [6]: 232 ng/mL | concentration at 3 h [7]: 74.9 ng/mL | concentration at 6 h [8]: 43.7 ng/mL | concentration at 0.08 h [9]: 207 ng/mL | concentration at 0.35 h [10]: 163 ng/mL | concentration at 1 h [11]: 109 ng/mL | concentration at 3 h [12]: 63.5 ng/mL | concentration at 6 h [13]: 45.5 ng/mL | concentration at 0.08 h [14]: 44.9 ng/g | concentration at 0.35 h [15]: 180 ng/g | concentration at 1 h [16]: 13.8 ng/g | concentration at 0.08 h [17]: 288 ng/g | concentration at 0.35 h [18]: 236 ng/g | concentration at 1 h [19]: 90.3 ng/g | concentration at 3 h [20]: 82 ng/g | concentration at 6 h [21]: 26 ng/g | concentration at 0.08 h [22]: 67.3 ng/g | concentration at 0.35 h [23]: 53 ng/g | concentration at 1 h [24]: 51.9 ng/g | concentration at 3 h [25]: 20.5 ng/g | concentration at 6 h [26]: 10.5 ng/g | Cmax [27]: 430 ng/mL | bioavailability [28]: 100% | Cmax [29]: 44.9 ng/g | AUClast [30]: 97.08 ng·h/g | AUClast [31]: 360.87 ng·h/g | AUClast [32]: 171.84 ng·h/g | AUC [33]: 204.06 ng·h/g

Cc1nc2ccccn2c1-c1csc(Nc2ccc3c(c2)OCO3)n1
inhibition ([34]; tested as the 2H-labelled form): Active | inhibition ([35]; tested as the 2H-labelled form): Active | inhibition ([36]; tested as the 2H-labelled form): Active

COc1ccc(Nc2nc(-c3c(C)nc4ccccn34)cs2)cc1
inhibition ([34]; tested as the 2H-labelled form): Active | pIC50 [37]: 8.00 | inhibition ([35]; tested as the 2H-labelled form): Active | inhibition ([36]; tested as the 2H-labelled form): Active

COc1c(F)cc(Nc2nc(-c3c(C)nc4ccccn34)cs2)cc1F.Cl
inhibition [34]: Active | inhibition [35]: Active | inhibition [36]: Active | inhibition [38]: Active | inhibition [39]: Active | inhibition [40]: Active
